Experimental findings from patent US12269902B2, “Peptide compounds and peptide conjugates for the treatment of cancer through receptor-mediated chemotherapy” (TRANSFERT PLUS, S.E.C., priority 2015, dated 2025) are described below.

This assay concerns the target T1, sortilin (Homo sapiens, UniProt Q99523).
T1 construct: Increasing concentrations of a soluble form of sortilin was then injected over the sensor chip
T1 sequence (Q99523 78-755 limits assumed): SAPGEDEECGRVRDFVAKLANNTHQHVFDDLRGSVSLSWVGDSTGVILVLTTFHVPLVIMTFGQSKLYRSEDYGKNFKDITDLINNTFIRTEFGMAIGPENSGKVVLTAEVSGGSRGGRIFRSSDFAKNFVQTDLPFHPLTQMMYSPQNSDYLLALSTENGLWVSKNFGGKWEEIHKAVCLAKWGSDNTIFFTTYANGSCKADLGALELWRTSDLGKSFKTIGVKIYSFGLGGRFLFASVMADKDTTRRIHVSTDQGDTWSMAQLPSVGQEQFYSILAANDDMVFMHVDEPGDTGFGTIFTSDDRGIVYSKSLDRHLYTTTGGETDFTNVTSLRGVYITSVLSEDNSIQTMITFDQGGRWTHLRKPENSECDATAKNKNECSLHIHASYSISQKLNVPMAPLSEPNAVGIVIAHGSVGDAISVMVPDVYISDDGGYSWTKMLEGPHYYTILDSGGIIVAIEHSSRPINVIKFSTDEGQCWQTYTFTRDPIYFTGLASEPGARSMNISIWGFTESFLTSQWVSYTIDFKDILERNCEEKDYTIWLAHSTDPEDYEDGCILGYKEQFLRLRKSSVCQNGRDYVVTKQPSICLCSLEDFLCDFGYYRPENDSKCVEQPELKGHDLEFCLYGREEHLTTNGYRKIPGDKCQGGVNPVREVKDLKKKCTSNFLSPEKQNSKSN
In words: biochemical. Format: binding. The conditions noted are these: read-out: ka. The method, then:
Biotinylated Katana peptide was immobilized on a streptavidin sensor chip. A. Soluble sortilin was then injected over the immobilized peptide. The surface plasmon resonance signal was then monitored over time.
Surface plasmon resonance (SPR) was first used to investigate whether these peptides could be recognized by sortilin. For this approach, biotin was added on the C-terminal end of the Katana-Biopharma peptide during peptide synthesis. The biotinylated-peptide (KBP-103) was then immobilized on a streptavidin sensor chip using recommended procedures from the manufacturer. Increasing concentrations of a soluble form of sortilin was then injected over the sensor chip. Interactions between immobilized KBP-103 and the receptor sortilin was then monitored in real time. A representative interaction curve is shown in FIG. 1, and from the sensorgram curves the affinity constant as well as Ka and Kd were determined and are indicated in Table 2. Affinity constants (KD, Ka and […]) were extracted from various injections using the BIA evaluation software.

Residues, ends and D or L forms follow the SMILES beside them. *: point of attachment. Biotin = O=C1N[C@H]2[C@H](CS[C@H]2CCCCC(=O)*)N1

Consider `CC[C@H](C)[C@H](N)C(=O)N[C@@H](CCCCN)C(=O)N[C@@H](CC(C)C)C(=O)N[C@@H](CO)C(=O)NCC(=O)NCC(=O)N[C@H](C(=O)N[C@@H](CCC(N)=O)C(=O)N[C@@H](C)C(=O)N[C@@H](CCCCN)C(=O)N[C@@H](C)C(=O)NCC(=O)N[C@H](C(=O)N[C@H](C(=O)N[C@@H](CC(N)=O)C(=O)N[C@@H](CCSC)C(=O)N[C@@H](Cc1ccccc1)C(=O)N[C@@H](CCCCN)C(=O)N[C@@H](CO)C(=O)N[C@@H](CCC(=O)O)C(=O)N[C@@H](CO)C(=O)N[C@@H](Cc1ccc(O)cc1)C(=O)N[C@@H](CCCCNC(=O)CCCC[C@@H]1SC[C@@H]2NC(=O)N[C@@H]21)C(=O)O)[C@@H](C)CC)C(C)C)C(C)C` [KBP-103] (H-IKLSGGVQAKAGVINMFKSESYK(Biotin)-OH), for which the kon worked out at 683000 M⁻¹ s⁻¹.
